# According to patent US6552014B2, “Methods of inhibiting platelet activation with selective serotonin reuptake inhibitors” (HeartDrug Research, L.L.C., priority 1999, dated 2003):
# Assays:
# CD9 = test: Flow cytometry of platelet antigen expression, platelet rich plasma; assay type: cell-based, human; conditions: PRP; healthy volunteers; desmethylsertraline 64.2 ng/ml
# GP IIb = test: as above; assay type: cell-based, human; conditions: PRP, desmethylsertraline 64.2 ng/ml
# P-selectin = test: Whole blood flow cytometry; assay type: cell-based, human; conditions: for P-Selectin (% +), % of cell positivity: Whole Blood
# Description: For ex vivo assessment of the SSRIs effect on a PAM, a level of a PAM can be assessed by flow cytometry by first obtaining a sample that comprises platelets and then contacting the sample with a platelet activation agonist, such as phorbol myristate acetate (PMA), ADP (adenosine diphosphate), thrombin, collagen, and/or TRAP (thrombin receptor activating peptide), under conditions suitable for activation of platelets in the sample. The sample is in contact with the agonist preferably for a period of time effective to maximally activate the platelets. […] Then one contacts or stains the samples with a composition that comprises an anti-PAM antibody e.g., having a fluorescent label, preferably in an amount in excess of that required to bind the PAM expressed on the platelets, under conditions suitable for the formation of labeled complexes between the anti-PAM antibody and activated platelets. Then the formation of the complex in the sample is determined (detected or measured).
# Four cc of blood was collected in a tube, containing 2 cc of acid-citrate-dextrose (ACD) (7.3 g citric acid, 22.0 g sodium citrate×2H2O and 24.5 glucose in a total amount of 1000 mL distilled water) and mixed well. The buffer, TBS (10 mM Tris, 0.15 M NaCl, pH 7.4) and the following fluorescein isothiocyanate (FITC) conjugated monoclonal antibodies (PharMingen, San Diego, Calif. USA, and DAKO, Calif., USA) were removed from a refrigerator and allowed to warm at room temperature (RT): CD41 (IIb/IIIa), CD31 (PECAM-1), CD62p (P-selectin), CD51/61 (Vitronectin receptor). Six amber tubes (1.25 ml) were obtained and marked. One Eppendorf tube (1.5 ml) was labeled with “Dill WB”, Patient ID #, Initial and Date. The amber tubes and Eppendorf tube were placed in the rack. […] of TBS buffer was pipetted to the labeled Eppendorf tube. The patient's whole blood tube was inverted gently twice to mix. 50 μl of whole blood was pipetted to the “Dill WB” labeled Eppendorf tube. The Eppendorf tube was capped and the diluted whole blood was mixed by inverting the Eppendorf tube gently two times 50 μl of diluted whole blood was pipetted to each amber tube. 5 μl of appropriate antibody was pipetted to the bottom of the corresponding amber tube. The tubes were covered with aluminum foil and incubated at 4° C. for 30 minutes. After incubation, 400 μl of 2% buffered paraformaldehyde was added. To prepare 2% Paraformaldehyde:Dilute 1 part 10% paraformaldehyde with 4 parts TBS. This solution was stored at 4° C. for up to one week. The amber tubes were closed with a lid tightly and stored in a refrigerator at 4° C. until the flow cytometric analysis. The samples are analyzed on a Becton Dickinson FACScan flow cytometer. The instrument is set up to measure forward light scatter (FSC), and FITC fluorescence. All parameters are collected using four decade logarithmic amplification.
# The data in table 1 was obtained using the methods described herein, and in particular, in Examples 1 and 2. The levels of various PAMs were assess from samples of human volunteers. […] Baseline levels of the PAMs were also obtained (without exposure to sertraline or NDMS).
# CPIa-IIa = test: Flow cytometry of platelet antigen expression, platelet rich plasma; assay type: cell-based, human; conditions: PRP; healthy volunteers; desmethylsertraline 64.2 ng/ml
# GP IIIa = test: as above; assay type: cell-based, human; conditions: PRP, desmethylsertraline 64.2 ng/ml
# platelets = test: Platelet aggregation in whole blood (ADP or collagen); assay type: cell-based, human
# Experimental: Trisodium citrate (3.8%) and whole blood is immediately mixed in a 1:9 ratio, and then centrifuged at 1200 g for 2.5 minutes, to obtain platelet-rich plasma (PRP), which is kept at room temperature for use within 1 hour for platelet aggregation studies. Platelet count is determined in each PRP sample with a Coulter Counter ZM (Coulter Co., Hialeah, Fla.). Platelet numbers are adjusted to 3.50×10^8/ml for aggregation with homologous platelet-poor plasma. PRP and whole blood aggregation tests are performed simultaneously. Whole blood is diluted 1.1 with the 0.5 ml PBS, and then swirled gently to mix . The cuvette with the stirring bar is placed in the incubation well and allowed to warm to 37° C. for 5 minutes. Then the sample are transferred to the assay well. An electrode is placed in the sample cuvette. Platelet aggregation is stimulated with 5 μM ADP, 1 μg/ml collagen, and 0.75 mM arachidonic acid. All agonists are obtained from Chronolog Corporation (Hawertown, Pa.). […] Platelet aggregability are expressed as the percentage of light transmittance change from baseline using platelet-poor plasma as a reference at the end of recording time for plasma samples, or as a change in electrical impedance for whole blood samples. Aggregation curves are recorded for 4 minutes and analyzed according to internationally established standards using Aggrolinkg® software.
# PECAM-1 = test: Ex vivo soluble PECAM-1 plasma levels in patients; set-up: species or system human; conditions: patients with depression following myocardial infarction; after 16 weeks of the sertraline/placebo therapy
# Experimental: Soluble P-selectin (Centocor, Inc., Malvern, Pa. USA); and PECAM-1 (Bender MedSystems, Vienna, Austria) are measured Plasma samples will be extracted with ethanol and then stored at −80° C. before final determination. Enzyme-linked immunosorbent assays will be used according standard techniques and as described herein.
# [1] = post-angioplasty patient on aspirin
Compound,CD9 (mean) log fluorescence intensity (CD9),GP IIb (mean) log fluorescence intensity (GP IIb; healthy volunteers),GP IIb (peak) log fluorescence intensity (GP IIb; [1]),"P-Selectin (% +), % of cell positivity (P-selectin; healthy volunteers, desmethylsertraline 31.1 ng/ml)","P-Selectin (% +), % of cell positivity (P-selectin; healthy volunteers, desmethylsertraline 64.2 ng/ml)","P-Selectin (% +), % of cell positivity (P-selectin; healthy volunteers, desmethylsertraline 143 ng/ml)","P-Selectin (% +), % of cell positivity (P-selectin; post-angioplasty patient on aspirin, desmethylsertraline 31.1 ng/ml)","P-Selectin (% +), % of cell positivity (P-selectin; post-angioplasty patient on aspirin, desmethylsertraline 64.2 ng/ml)","P-Selectin (% +), % of cell positivity (P-selectin; post-angioplasty patient on aspirin, desmethylsertraline 143 ng/ml)","P-selectin expression (FIG. 4), in words (P-selectin; whole blood, post-angioplasty patient, increasing concentrations)",CPIa-IIa (mean) log fluorescence intensity (CPIa-IIa),CPIa-IIa (peak) log fluorescence intensity (CPIa-IIa),GP IIIa (peak) log fluorescence intensity (GP IIIa; healthy volunteers),GP IIIa (mean) log fluorescence intensity (GP IIIa; [1]),"ADP-, and collagen-induced platelet aggregation in whole blood (in vitro), in words (platelets; healthy controls and patients with coronary artery disease, including those on aspirin)","percent of platelet aggregation (FIGS. 2 and 3), in words (platelets; whole blood, healthy volunteer, induced with ADP or collagen, sertraline 18.1, 44.7 or 85.3 ng/ml)","ex vivo PECAM-1 plasma levels, in words (PECAM-1)"
"N[C@H]1CC[C@@H](c2ccc(Cl)c(Cl)c2)c2ccccc21 [Desmethyl sertraline, N-desmethylsertraline]",859,37,20,1.2%,3.3%,0.4%,10.68%,8.04%,9.92%,striking decreases in expression,42,40,1144,1247,–,–,–
CN[C@H]1CC[C@@H](c2ccc(Cl)c(Cl)c2)c2ccccc21 [sertraline],–,–,–,–,–,–,–,–,–,–,–,–,–,–,Dose-dependent inhibition,decreases with increasing amounts of sertraline,"Mild, but consistent reduction"
